Data published in patent publication US9192577B2, “Pharmaceutical compositions comprising a basic drug compound, a surfactant, and a physiologically tolerable water soluble acid” (Janssen Pharmaceutica NV, priority 2002, dated 2015).
Where two headings read alike, the source gives them in different places.

How the values were obtained:
[1] = tested on: mock-infected MT-4 cells; test: cytotoxicity (CC50) in mock-infected MT-4 cells (MTT); type: cell-based
Experimental: (§1) A rapid, sensitive and automated assay procedure was used for the in vitro evaluation of anti-HIV agents. […] Inhibition of the HIV-induced cytopathic effect was used as the end point. The viability of both HIV- and mock-infected cells was assessed spectrophotometrically via the in situ reduction of 3-(4,5-dimethylthiazol-2-yl)-2,5-diphenyltetrazolium bromide (MTT). The 50% cytotoxic concentration (CC50 in M) was defined as the concentration of compound that reduced the absorbance of the mock-infected control sample by 50%. The percent protection achieved by the compound in HIV-infected cells was calculated by the following formula:
(§2) [formula] whereby (ODT)HIV is the optical density measured with a given concentration of the test compound in HIV-infected cells; (ODC)HIV is the optical density measured for the control untreated HIV-infected cells; (ODC)MOCK is the optical density measured for the control untreated mock-infected cells; all optical density values were determined at 540 nm. The dose achieving 50% protection according to the above formula was defined as the 50% inhibitory concentration (IC50 in M). The ratio of CC50 to IC50 was defined as the selectivity index (SI).

[2] = tested on: HIV; test: in vitro anti-HIV assay: inhibition of HIV-induced cytopathic effect in MT-4 cells (MTT); type: cell-based; settings: for pSI: pSI = pCC50-pIC50 (selectivity index CC50/IC50); for pIC50 (M): −log IC50
Experimental: as §1, §2

[3] = 50% protection against HIV-induced cytopathic effect in MT-4 cells, MTT

## Cc1cc(C=C(C#N)CC#N)cc(C)c1Nc1ccnc(Nc2ccc(C#N)cc2)n1 (mixture of isomers) [Compound 147]
[1]
  pCC50 (M): 5.7 M
[2]
  pSI: −3.7
[2]; [3]
  pIC50 (M): 9.4 M

## Cc1cc(/C=C/C#N)cc(C)c1Nc1ccnc(Nc2ccc(C#N)cc2)n1 [Compound 1, 4-[[4-[[4-(2-cyanoethenyl)-2,6-dimethylphenyl]amino]-2-pyrimidinyl]amino]benzonitrile]
[2]
  pSI: −4.4

## Cc1cc(/C=C/C#N)cc(C)c1Nc1ccnc(Nc2ccc(C#N)cc2)n1 [Compound 10]
[1]; −log CC50, mock-infected MT-4 cells, MTT
  pCC50 (M): 6.3 M
[2]; Human immunodeficiency virus 1, MT4, −log IC50, 50% protection against HIV-induced cytopathic effect in MT-4 cells, MTT
  IC50: 0.631 nM
[2]
  pSI: −2.9

## Cc1cc(C=CC#N)cc(C)c1Oc1ccnc(Nc2ccc(C#N)cc2)n1 [Compound 25]
[2]
  pSI: −5
[2]; [3]
  pIC50 (M): 9 M

## CC(=NO)c1cc(C)c(Nc2ccnc(Nc3ccc(C#N)cc3)n2)c(C)c1 [Compound 45]
[1]
  pCC50 (M): 5.0 M
[2]
  pSI: −3.8
[2]; [3]
  pIC50 (M): 8.7 M

## Cc1cc(CN(C)CCC#N)cc(C)c1Nc1ccnc(Nc2ccc(C#N)cc2)n1 [Compound 75]
[1]
  pCC50 (M): 5.0 M
[2]
  pSI: −4.0
[2]; [3]
  pIC50 (M): 9.0 M

## C/C(=C\C#N)c1cc(C)c(Nc2ccnc(Nc3ccc(C#N)cc3)n2)c(C)c1 [Compound 84]
[1]
  pCC50 (M): 4.5 M
[2]
  pSI: −4.5
[2]; [3]
  pIC50 (M): 9.0 M

## Cc1cc(/C=C/C#N)cc(Cl)c1Nc1ccnc(Nc2ccc(C#N)cc2)n1 [Compound 133]
[1]
  pCC50 (M): 4 M
[2]
  pSI: −5.2
[2]; [3]
  pIC50 (M): 9.2 M

## Cc1cc(CC(C#N)C#N)cc(C)c1Nc1ccnc(Nc2ccc(C#N)cc2)n1 [Compound 144]
[1]
  pCC50 (M): 6.4 M
[2]
  pSI: −2.2
[2]; [3]
  pIC50 (M): 8.6 M

## Cc1cc(/C=C/c2cccnc2)cc(C)c1Nc1ccnc(Nc2ccc(C#N)cc2)n1 [Compound 146]
[2]
  pSI: −3

## CC/C(=C\C#N)c1cc(C)c(Nc2ccnc(Nc3ccc(C#N)cc3)n2)c(C)c1 [Compound 148]
[1]
  pCC50 (M): 4.9 M
[2]
  pSI: −3.9
[2]; [3]
  pIC50 (M): 8.8 M

## Cc1cc(/C(=C/C#N)C(C)C)cc(C)c1Nc1ccnc(Nc2ccc(C#N)cc2)n1 [Compound 149]
[1]
  pCC50 (M): 5.3 M
[2]
  pSI: −3.8
[2]; [3]
  pIC50 (M): 9.1 M

## Cc1cc(/C(=C\C#N)C(C)C)cc(C)c1Nc1ccnc(Nc2ccc(C#N)cc2)n1 [Compound 150]
[1]
  pCC50 (M): 4.8 M
[2]
  pSI: −4.0
[2]; [3]
  pIC50 (M): 8.8 M

## CC(C#N)=Cc1cc(C)c(Nc2ccnc(Nc3ccc(C#N)cc3)n2)c(C)c1 [Compound 151]
[1]
  pCC50 (M): 5.5 M
[2]
  pSI: −3.6
[2]; [3]
  pIC50 (M): 9.1 M

## CC(C#N)=Cc1cc(C)c(Nc2ccnc(Nc3ccc(C#N)cc3)n2)c(C)c1 [Compound 152]
[1]
  pCC50 (M): 4.8 M
[2]
  pSI: −4.3
[2]; [3]
  pIC50 (M): 9.1 M

## Cc1cc(CC(C)C#N)cc(C)c1Nc1ccnc(Nc2ccc(C#N)cc2)n1 (stereo not shown) [Compound 153]
[1]
  pCC50 (M): 6.3 M
[2]
  pSI: −2.9
[2]; [3]
  pIC50 (M): 9.2 M

## CCN(C)C(=O)/C=C/c1cc(C)c(Nc2ccnc(Nc3ccc(C#N)cc3)n2)c(C)c1 [Compound 158]
[1]
  pCC50 (M): 5.5 M
[2]
  pSI: −2.5
[2]; [3]
  pIC50 (M): 8 M

## Cc1cc(CN(C)C=NC#N)cc(C)c1Oc1ccnc(Nc2ccc(C#N)cc2)n1 [Compound 174]
[1]
  pCC50 (M): 5.3 M
[2]
  pSI: −3.5
[2]; [3]
  pIC50 (M): 8.8 M

## Cc1cc(/C=C\Br)cc(C)c1Oc1ccnc(Nc2ccc(C#N)cc2)n1 [Compound 177]
[1]
  pCC50 (M): <4.0 M
[2]
  pSI: <−4.3
[2]; [3]
  pIC50 (M): 8.3 M

## CC(C#N)=Cc1cc(C)c(Oc2ccnc(Nc3ccc(C#N)cc3)n2)c(C)c1 [Compound 178]
[1]
  pCC50 (M): 5.7 M
[2]
  pSI: −3.1
[2]; [3]
  pIC50 (M): 8.8 M

## CC(C#N)=Cc1cc(C)c(Oc2ccnc(Nc3ccc(C#N)cc3)n2)c(C)c1 [Compound 179]
[1]
  pCC50 (M): <4.0 M
[2]
  pSI: <−4.9
[2]; [3]
  pIC50 (M): 8.9 M

## Cc1cc(/C=C/C(=O)N(C)CC#N)cc(C)c1Oc1ccnc(Nc2ccc(C#N)cc2)n1 [Compound 212]
[1]
  pCC50 (M): 5 M
[2]
  pSI: −4.1
[2]; [3]
  pIC50 (M): 9.1 M

## C/C(=C\C#N)c1cc(C)c(Oc2ccnc(Nc3ccc(C#N)cc3)n2)c(C)c1 [Compound 213]
[1]
  pCC50 (M): 4.8 M
[2]
  pSI: −4.2
[2]; [3]
  pIC50 (M): 9 M

## Cc1cc(/C=C/C(=O)N(C)CCC#N)cc(C)c1Oc1ccnc(Nc2ccc(C#N)cc2)n1 [Compound 214]
[1]
  pCC50 (M): 5.1 M
[2]
  pSI: −3.5
[2]; [3]
  pIC50 (M): 8.6 M

## CCN(C)C(=O)/C=C/c1cc(C)c(Oc2ccnc(Nc3ccc(C#N)cc3)n2)c(C)c1 [Compound 215]
[1]
  pCC50 (M): 5.5 M
[2]
  pSI: −3.6
[2]; [3]
  pIC50 (M): 9.1 M

## Cc1cc(/C=C/C(=O)N(C)C)cc(C)c1Oc1ccnc(Nc2ccc(C#N)cc2)n1 [Compound 219]
[1]
  pCC50 (M): 5 M
[2]
  pSI: −4.1
[2]; [3]
  pIC50 (M): 9.1 M

## Cc1cc(CCC#N)ccc1Nc1ccnc(Nc2ccc(C#N)cc2)n1 [Compound 227]
[1]
  pCC50 (M): <4.0 M
[2]
  pSI: <−5.5
[2]; [3]
  pIC50 (M): 9.5 M

## CC(C#N)=Cc1ccc(Nc2ccnc(Nc3ccc(C#N)cc3)n2)c(C)c1 [Compound 229]
[1]
  pCC50 (M): <4.0 M
[2]
  pSI: <−4.8
[2]; [3]
  pIC50 (M): 8.8 M

## Cc1cc(/C=C/C#N)ccc1Oc1ccnc(Nc2ccc(C#N)cc2)n1 [Compound 230]
[1]
  pCC50 (M): <4.0 M
[2]
  pSI: <−5.2
[2]; [3]
  pIC50 (M): 9.2 M

## CC(C#N)=Cc1ccc(Oc2ccnc(Nc3ccc(C#N)cc3)n2)c(C)c1 [Compound 231]
[1]
  pCC50 (M): <4.0 M
[2]
  pSI: <−5.2
[2]; [3]
  pIC50 (M): 9.2 M

## C/C(=C\C#N)c1ccc(Oc2ccnc(Nc3ccc(C#N)cc3)n2)c(C)c1 [Compound 232]
[1]
  pCC50 (M): <4.0 M
[2]
  pSI: <−4.4
[2]; [3]
  pIC50 (M): 8.4 M

## CC(C#N)=Cc1cc(C)c(Nc2ccnc(Nc3ccc(C#N)cc3)n2)c(Cl)c1 [Compound 233]
[1]
  pCC50 (M): 5.7 M
[2]
  pSI: −3.6
[2]; [3]
  pIC50 (M): 9.3 M

## Cc1cc(CCC#N)ccc1Oc1ccnc(Nc2ccc(C#N)cc2)n1 [Compound 234]
[1]
  pCC50 (M): <4.0 M
[2]
  pSI: <−4.7
[2]; [3]
  pIC50 (M): 8.7 M

## Cc1cc(C(C)CC#N)ccc1Oc1ccnc(Nc2ccc(C#N)cc2)n1 (stereo not shown) [Compound 235]
[1]
  pCC50 (M): <4.0 M
[2]
  pSI: <−5.3
[2]; [3]
  pIC50 (M): 9.3 M

## Cc1cc(CC(C)C#N)ccc1Oc1ccnc(Nc2ccc(C#N)cc2)n1 (stereo not shown) [Compound 236]
[1]
  pCC50 (M): <4.0 M
[2]
  pSI: <−4.8
[2]; [3]
  pIC50 (M): 8.8 M

## Cc1cc(/C=C/C#N)ccc1Nc1ccnc(Nc2ccc(C#N)cc2)n1 [Compound 237]
[1]
  pCC50 (M): <4.0 M
[2]
  pSI: <−4.9
[2]; [3]
  pIC50 (M): 8.9 M

## Cc1cc(CC#N)cc(Cl)c1Nc1ccnc(Nc2ccc(C#N)cc2)n1 [Compound 238]
[1]
  pCC50 (M): 5.6 M
[2]
  pSI: −3.9
[2]; [3]
  pIC50 (M): 9.5 M

## Cc1cc(/C=C/C#N)cc(-c2ccco2)c1Nc1ccnc(Nc2ccc(C#N)cc2)n1 [Compound 239]
[1]
  pCC50 (M): 5 M
[2]
  pSI: −3.9
[2]; [3]
  pIC50 (M): 8.9 M

## Cc1cc(CN(C)CCC#N)cc(Br)c1Nc1ccnc(Nc2ccc(C#N)cc2)n1 [Compound 241]
[1]
  pCC50 (M): 5.3 M
[2]
  pSI: −4.1
[2]; [3]
  pIC50 (M): 9.4 M
